The test deals with T1, MPP8 CD (chromodomain, residues 55–116) (Homo sapiens, UniProt Q99549).
T1 construct: The MPP8 CD (residues 55–116) was cloned with a tobacco etch virus (TEV) protease cleavage site; His6 (N); TEV protease cleavage site (ENLYFQG) (N); made in house; host or cells: E. coli BL21 (DE3)
T1 sequence (Q99549 55-116): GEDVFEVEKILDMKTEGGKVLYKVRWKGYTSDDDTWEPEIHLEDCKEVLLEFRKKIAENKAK
As to the kind of experiment: Isothermal titration calorimetry (ITC) of H3K9 and H3K9-like peptides titrated into MPP8 CD. The class given is binding. Conditions: 50 mM HEPES pH 7.4, 0.1 M NaCl, 0.5 mM TCEP, 25 °C, single-site model. How it is done: H3K9 and H3K9-like peptides, unmethylated or lysine-trimethylated, were chemically synthesized (Bio Basic Inc/NBS Biologicals Ltd). Binding of MPP8 CD to H3K9 and H3K9-like peptides was analyzed in 50 mM HEPES pH 7.4, 0.1 M NaCl, 0.5 mM TCEP at 25 °C (298 K), with an AutoiTC200 calorimeter (MicroCal). The sample cell was loaded with 0.37 ml of 50 μM MPP8 CD and the titrant syringe with 750 μM peptide. 20 serial injections of […] peptide solution were performed at 3 min intervals. The stirring speed was 1,000 rpm and the reference power was maintained at 6.06 µcal s^−1. The net heat absorption or release associated with each injection was calculated by subtracting the heat associated with the injection of peptide solution to buffer. Thermodynamic parameters were extracted from a curve fit to the data to a single-site model with Origin 7.0 (MicroCal).
Background: Isothermal titration calorimetry measures the heat released or taken up as one component is titrated into another.

[1] abbreviates: 50 μM MPP8 CD in cell, 750 μM peptide in syringe.

Non-standard residues stand in square brackets, D forms with d. Residues, ends and D or L forms follow the SMILES beside them. Lys(Me3) = C[N+](C)(C)CCCC[C@H](N)C(=O)O

By Kd is commonly meant the equilibrium constant for the complex coming apart. A high value points to lower affinity. The compound `CC(C)C[C@H](N)C(=O)N[C@@H](C)C(=O)N[C@H](C(=O)N[C@@H](CCCCN)C(=O)N[C@@H](C)C(=O)N[C@@H](C)C(=O)N[C@@H](CCCNC(=N)N)C(=O)N[C@@H](CCCC[N+](C)(C)C)C(=O)N[C@@H](CO)C(=O)N[C@@H](C)C(=O)N1CCC[C@H]1C(=O)N[C@@H](C)C(=O)N[C@H](C(=O)NCC(=O)NCC(=O)N[C@H](C(=O)N[C@@H](CCCCN)C(=O)O)C(C)C)[C@@H](C)O)[C@@H](C)O` [H3.1 20-36 K27me3, reference compound] showed a Kd under setting [1] greater than 50000 nM.

For `CC[C@H](C)[C@H](NC(=O)CNC(=O)[C@H](Cc1c[nH]cn1)NC(=O)[C@@H](NC(=O)[C@@H](N)CO)[C@@H](C)O)C(=O)N[C@@H](C)C(=O)N[C@H](C(=O)N[C@@H](CCCC[N+](C)(C)C)C(=O)N[C@@H](CO)C(=O)N[C@H](C(=O)N[C@@H](CC(N)=O)C(=O)N[C@@H](CCSC)C(=O)N[C@@H](C)C(=O)N[C@@H](CO)C(=O)O)[C@@H](C)O)[C@@H](C)CC` [SETDB1 1171-1184 K1178me3] (H-STHGIAI[Lys(Me3)]STNMAS-OH; N-terminus and C-terminus assumed), the Kd is greater than 50000 nM under setting [1] and greater than 80000 nM (Figure 4B).

As to `CC[C@H](C)[C@H](NC(=O)CNC(=O)[C@H](Cc1c[nH]cn1)NC(=O)[C@@H](NC(=O)[C@H](CO)NC(=O)[C@H](CCCC[N+](C)(C)C)NC(=O)[C@H](CC(C)C)NC(=O)[C@H](C)NC(=O)[C@H](Cc1ccccc1)NC(=O)CNC(=O)[C@@H](N)CCCNC(=N)N)[C@@H](C)O)C(=O)O` [SETDB1 1165-1175 K1170me3] (H-RGFAL[Lys(Me3)]STHGI-OH), binding under setting [1] was characterised by a dissociation constant (Kd) of 1550 nM.

`CSCC[C@H](NC(=O)[C@@H](NC(=O)[C@H](CCCC[N+](C)(C)C)NC(=O)[C@H](CCCNC(=N)N)NC(=O)[C@H](C)NC(=O)[C@H](CCCNC(=N)N)NC(=O)[C@H](Cc1c[nH]cn1)NC(=O)[C@@H](NC(=O)[C@@H](N)CCCCN)C(C)C)[C@@H](C)O)C(=O)N[C@@H](CO)C(=O)N[C@@H](CCCCN)C(=O)N1CCC[C@H]1C(=O)O` [G9a 179-190 K185me3] (H-KVHRAR[Lys(Me3)]TMSKP-OH): binding under setting [1] was put at a Kd of 1310 nM.

Consider `CSCC[C@H](NC(=O)[C@@H](NC(=O)[C@H](CCCC[N+](C)(C)C)NC(=O)[C@H](CCCNC(=N)N)NC(=O)[C@H](C)NC(=O)[C@H](CCCCN)NC(=O)[C@H](Cc1ccccc1)NC(=O)[C@@H](NC(=O)[C@@H](N)CCCCN)C(C)C)[C@@H](C)O)C(=O)N[C@@H](CCCNC(=N)N)C(=O)N[C@H](C(=O)N[C@@H](CO)C(=O)O)C(C)C` [ATF7IP 10-21 K16me3] (H-KVFKAR[Lys(Me3)]TMRVS-OH), for which the Kd under setting [1] amounted to 193 ± 31 nM.

Take `C[C@H](NC(=O)[C@H](CCCCN)NC(=O)CNC(=O)CNC(=O)[C@@H](NC(=O)[C@H](CO)NC(=O)[C@H](CCCC[N+](C)(C)C)NC(=O)[C@H](CCCNC(=N)N)NC(=O)[C@H](C)NC(=O)[C@@H](NC(=O)[C@H](CCC(N)=O)NC(=O)[C@@H](N)CCCCN)[C@@H](C)O)[C@@H](C)O)C(=O)O` [H3.1 4-15 K9me3, reference compound]: binding under setting [1] was characterised by a dissociation constant (Kd) of 769 ± 65 nM.

Consider `CSCC[C@H](NC(=O)[C@@H](NC(=O)[C@H](CCCC[N+](C)(C)C)NC(=O)[C@H](CCCNC(=N)N)NC(=O)[C@H](C)NC(=O)[C@H](CCCNC(=N)N)NC(=O)[C@H](Cc1c[nH]cn1)NC(=O)[C@@H](NC(=O)[C@@H](N)CCCCN)C(C)C)[C@@H](C)O)C(=O)N1CCC[C@H]1C(=O)N[C@@H](CCCCN)C(=O)N[C@@H](CO)C(=O)N[C@H](C(=O)O)C(C)C` [GLP 199-211 K205me3] (H-KVHRAR[Lys(Me3)]TMPKSV-OH), for which the Kd under setting [1] turned out to be 337 ± 64 nM.

Source of the values: publication PMC7618375, “Structure and Methyl-lysine Binding Selectivity of the HUSH Complex Subunit MPP8” (Journal of molecular biology, 2024).
